# Experimental data published in patent publication US6608082B1, “Treatment of erectile dysfunction using isoquinoline compound melanocortin receptor ligands” (Lion Bioscience AG, priority 1998, dated 2003).
# Like-named read-outs stand apart in the source and are kept apart here.
# Molecular target: T1, MCR-1 (Homo sapiens, UniProt Q01726)
# T1 construct: expressed in transfected cells; host or cells: HEK 293
# Experiment: Melanocortin receptor binding assay, competition with 125I-HP 467, HEK 293 cells expressing hMCR-1
# Settings: read-out: MC-1 IC50
# Method in brief: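 Intact-cell competition binding, 2.5 hr at 37 °C, in PBS/10% calf serum/1 mM CaCl2; hMCR-4 cells at 4×10^3 per tube, hMCR-1 cells at 2×10^4 per tube. Filtration on BSA/CaCl2-soaked GF/B, cold 50 mM Tris pH 7.4 washes, scintillation count.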
# [1] = competition with 125I-HP 467, HEK 293 cells expressing MCR-1
# [2] = inhibition of binding of 125I-HP 467, HEK 293 cells expressing MCR-1
# T1 sequence (Q01726 whole entry): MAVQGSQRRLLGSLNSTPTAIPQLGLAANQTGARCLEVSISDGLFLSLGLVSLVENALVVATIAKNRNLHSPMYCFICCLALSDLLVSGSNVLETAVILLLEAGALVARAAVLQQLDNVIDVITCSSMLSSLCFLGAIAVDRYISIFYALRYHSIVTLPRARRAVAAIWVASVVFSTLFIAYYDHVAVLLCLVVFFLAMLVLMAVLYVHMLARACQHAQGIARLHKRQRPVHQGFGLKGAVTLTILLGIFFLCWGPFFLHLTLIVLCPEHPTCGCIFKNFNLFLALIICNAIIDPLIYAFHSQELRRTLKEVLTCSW
Compound,IC50 [1] [nM],IC50 [2] [nM]
CCCCNC(CN)CCCN1Cc2ccccc2C(CNCCc2ccccc2)C1c1ccc(-c2ccccc2)cc1 (stereo not shown) [TRG 2411-124],1540,–
NCC(CCCN1Cc2ccccc2C(CNCCc2ccccc2)C1c1ccc(-c2ccccc2)cc1)NCC1CCCCC1 (stereo not shown) [TRG 2411-125],820,–
CCNC(CN)CCCN1Cc2ccccc2C(CNC2CCCCC2)C1c1ccc(-c2ccccc2)cc1 (stereo not shown) [TRG 2411-127],1480,–
CNC(C)CNC(CN)CCCN1Cc2ccccc2C(CNC2CCCCC2)C1c1ccc(-c2ccccc2)cc1 (stereo not shown) [TRG 2411-128],1570,–
CNC(CNC(CN)CCCN1Cc2ccccc2C(CNC2CCCCC2)C1c1ccc(-c2ccccc2)cc1)Cc1ccccc1 (stereo not shown) [TRG 2411-130],920,–
NCC(CCCN1Cc2ccccc2C(CNC2CCCCC2)C1c1ccc(-c2ccccc2)cc1)N1CCCC1 (stereo not shown) [TRG 2411-131],230,–
NCC(CCCN1Cc2ccccc2C(CNC2CCCCC2)C1c1ccc(-c2ccccc2)cc1)NCC1CCCCC1 (stereo not shown) [TRG 2411-134],1480,–
NCC(CCCN1Cc2ccccc2C(CNC2CCCCC2)C1c1ccc(-c2ccccc2)cc1)NCc1ccccc1 (stereo not shown) [TRG 2411-135],1980,–
CNC(CN)CCCN1Cc2ccccc2C(CN)C1c1ccc(-c2ccccc2)cc1 (stereo not shown) [TRG 2411-137],1620,–
CCNC(CN)CCCN1Cc2ccccc2C(CN)C1c1ccc(-c2ccccc2)cc1 (stereo not shown) [TRG 2411-138],1270,–
NCC(CCCN1Cc2ccccc2C(CN)C1c1ccc(-c2ccccc2)cc1)NCCc1ccccc1 (stereo not shown) [TRG 2411-139],1460,–
CNCCNC(CN)CCCN1Cc2ccccc2C(CN)C1c1ccc(-c2ccccc2)cc1 (stereo not shown) [TRG 2411-140],1360,–
NCCNC(CN)CCCN1Cc2ccccc2C(CN)C1c1ccc(-c2ccccc2)cc1 (stereo not shown) [TRG 2411-141],1150,–
CNC(CNC(CN)CCCN1Cc2ccccc2C(CN)C1c1ccc(-c2ccccc2)cc1)Cc1ccccc1 (stereo not shown) [TRG 2411-144],1220,–
CCNc1ccc(C2C(CNCCc3ccccc3)c3ccccc3CN2CCCC(CN)NCCN)cc1 (stereo not shown) [TRG 2411-163],–,220
CCCCNC(CN)CCCN1Cc2ccccc2C(CNC2CCCCC2)C1c1ccc(NCC)cc1 (stereo not shown) [TRG 2411-165],–,90
CCNc1ccc(C2C(CNC3CCCCC3)c3ccccc3CN2CCCC(CN)N2CCCC2)cc1 (stereo not shown) [TRG 2411-166],–,40
CCNc1ccc(C2C(CNC3CCCCC3)c3ccccc3CN2CCCC(CN)NCCc2ccc(OC)cc2)cc1 (stereo not shown) [TRG 2411-168],–,230
CCNc1ccc(C2C(CNC3CCCCC3)c3ccccc3CN2CCCC(CN)NCc2ccc(Cl)cc2)cc1 (stereo not shown) [TRG 2411-170],–,130
CCNc1ccc(C2C(CNC3CCCCC3)c3ccccc3CN2CCCC(CN)NCc2ccc(OC)cc2)cc1 (stereo not shown) [TRG 2411-171],–,150
CCNc1ccc(C2C(CNC3CCCCC3)c3ccccc3CN2CCCC(CN)NCCc2ccc3ccccc3c2)cc1 (stereo not shown) [TRG 2411-172],–,220
CCNc1ccc(C2C(CN)c3ccccc3CN2CCCC(CN)NC)cc1 (stereo not shown) [TRG 2411-175],–,290
CCCCNC(CN)CCCN1Cc2ccccc2C(CN)C1c1ccc(NCC)cc1 (stereo not shown) [TRG 2411-177],–,110
CCNc1ccc(C2C(CN)c3ccccc3CN2CCCC(CN)NCCc2ccc(OC)cc2)cc1 (stereo not shown) [TRG 2411-181],–,110
CCNc1ccc(C2C(CN)c3ccccc3CN2CCCC(CN)NCc2ccccc2)cc1 (stereo not shown) [TRG 2411-182],–,200
CCNc1ccc(C2C(CN)c3ccccc3CN2CCCC(CN)NCc2ccc(Cl)cc2)cc1 (stereo not shown) [TRG 2411-183],–,130

Compound,IC50 [1] [nM],IC50 [2] [nM]
CCNc1ccc(C2C(CN)c3ccccc3CN2CCCC(CN)NCCN)cc1 (stereo not shown) [TRG 2411-187],–,60
CCCCNc1ccc(C2C(CNCCc3ccccc3)c3ccccc3CN2CCCC(N)CN)cc1 (stereo not shown) [TRG 2411-188],–,130
CCCCNc1ccc(C2C(CNCCc3ccccc3)c3ccccc3CN2CCCC(CN)NC)cc1 (stereo not shown) [TRG 2411-189],–,120
CCCCNc1ccc(C2C(CNCCc3ccccc3)c3ccccc3CN2CCCC(CN)NCc2ccc(Cl)cc2)cc1 (stereo not shown) [TRG 2411-197],–,80
CCCCNc1ccc(C2C(CNCCc3ccccc3)c3ccccc3CN2CCCC(CN)NCc2ccc(OC)cc2)cc1 (stereo not shown) [TRG 2411-198],–,120
CCCCNc1ccc(C2C(CNCCc3ccccc3)c3ccccc3CN2CCCC(CN)NCCc2ccc3ccccc3c2)cc1 (stereo not shown) [TRG 2411-199],–,170
CCCCNc1ccc(C2C(CNCCc3ccccc3)c3ccccc3CN2CCCC(CN)NCCN)cc1 (stereo not shown) [TRG 2411-201],–,300
CCCCNc1ccc(C2C(CNC3CCCCC3)c3ccccc3CN2CCCC(N)CN)cc1 (stereo not shown) [TRG 2411-202],–,220
CCCCNc1ccc(C2C(CNC3CCCCC3)c3ccccc3CN2CCC[C@@H](CN)NC)cc1 (stereo partly shown) [TRG 2411-203],–,170
CCCCNc1ccc(C2C(CNC3CCCCC3)c3ccccc3CN2CCCC(CN)NCC)cc1 (stereo not shown) [TRG 2411-204],–,150
CCCCNc1ccc(C2C(CNC3CCCCC3)c3ccccc3CN2CCCC(CN)NCCCC)cc1 (stereo not shown) [TRG 2411-205],–,250
CCCCNc1ccc(C2C(CNC3CCCCC3)c3ccccc3CN2CCCC(CN)NCCc2ccccc2)cc1 (stereo not shown) [TRG 2411-207],–,190
CCCCNc1ccc(C2C(CNC3CCCCC3)c3ccccc3CN2CCCC(CN)NCc2ccc(Cl)cc2)cc1 (stereo not shown) [TRG 2411-211],–,100
CCCCNc1ccc(C2C(CNC3CCCCC3)c3ccccc3CN2CCCC(CN)NCCC2CCCCC2)cc1 (stereo not shown) [TRG 2411-214],–,80
CCCCNc1ccc(C2C(CN)c3ccccc3CN2CCCC(N)CN)cc1 (stereo not shown) [TRG 2411-216],–,110
CCCCNc1ccc(C2C(CN)c3ccccc3CN2CCCC(CN)NC)cc1 (stereo not shown) [TRG 2411-217],–,90
CCCCCNc1ccc(C2C(CNCCc3ccccc3)c3ccccc3CN2CCCCC(CN)NC)cc1 (stereo not shown) [TRG 2412-1],–,380
CCCCCNc1ccc(C2C(CNCCc3ccccc3)c3ccccc3CN2CCCCC(CN)NCCc2ccccc2)cc1 (stereo not shown) [TRG 2412-2],–,470
CCCCCNc1ccc(C2C(CNCCc3ccccc3)c3ccccc3CN2CCCCC(CN)NCc2ccccc2)cc1 (stereo not shown) [TRG 2412-3],–,360
CCOc1ccc(C2C(CNCCc3ccccc3)c3ccccc3CN2CCCCC(CN)NCCc2ccccc2)cc1 (stereo not shown) [TRG 2412-5],–,490
CCOc1ccc(C2C(CNCCc3ccccc3)c3ccccc3CN2CCCCC(CN)NCc2ccccc2)cc1 (stereo not shown) [TRG 2412-6],–,590
CCCOc1ccc(C2C(CNCCc3ccccc3)c3ccccc3CN2CCCCC(CN)NC)cc1 (stereo not shown) [TRG 2412-7],–,420
CCCOc1ccc(C2C(CNCCc3ccccc3)c3ccccc3CN2CCCCC(CN)NCCc2ccccc2)cc1 (stereo not shown) [TRG 2412-8],–,830
CCCOc1ccc(C2C(CNCCc3ccccc3)c3ccccc3CN2CCCCC(CN)NCc2ccccc2)cc1 (stereo not shown) [TRG 2412-9],–,570
CCCCOc1ccc(C2C(CNCCc3ccccc3)c3ccccc3CN2CCCCC(CN)NC)cc1 (stereo not shown) [TRG 2412-10],–,310
CCCCOc1ccc(C2C(CNCCc3ccccc3)c3ccccc3CN2CCCCC(CN)NCCc2ccccc2)cc1 (stereo not shown) [TRG 2412-11],–,820

Compound,IC50 [1] [nM],IC50 [2] [nM]
CCCCOc1ccc(C2C(CNCCc3ccccc3)c3ccccc3CN2CCCCC(CN)NCc2ccccc2)cc1 (stereo not shown) [TRG 2412-12],–,540
CCCCCc1ccc(C2C(CNCCc3ccccc3)c3ccccc3CN2CCCCC(CN)NC)cc1 (stereo not shown) [TRG 2412-13],–,450
CCCCCc1ccc(C2C(CNCCc3ccccc3)c3ccccc3CN2CCCCC(CN)NCCc2ccccc2)cc1 (stereo not shown) [TRG 2412-14],–,880
CCCCCc1ccc(C2C(CNCCc3ccccc3)c3ccccc3CN2CCCCC(CN)NCc2ccccc2)cc1 (stereo not shown) [TRG 2412-15],–,750
CCCCCNc1ccc(C2C(CNCCc3ccccc3)c3ccccc3CN2CCCC(CN)NCc2ccccc2)cc1 (stereo not shown) [TRG 2412-18],–,190
CCOc1ccc(C2C(CNCCc3ccccc3)c3ccccc3CN2CCCC(CN)NC)cc1 (stereo not shown) [TRG 2412-19],–,160
CCOc1ccc(C2C(CNCCc3ccccc3)c3ccccc3CN2CCCC(CN)NCCc2ccccc2)cc1 (stereo not shown) [TRG 2412-20],–,150
CCCOc1ccc(C2C(CNCCc3ccccc3)c3ccccc3CN2CCCC(CN)NC)cc1 (stereo not shown) [TRG 2412-22],–,200
CCCOc1ccc(C2C(CNCCc3ccccc3)c3ccccc3CN2CCCC(CN)NCCc2ccccc2)cc1 (stereo not shown) [TRG 2412-23],–,350
CCCOc1ccc(C2C(CNCCc3ccccc3)c3ccccc3CN2CCCC(CN)NCc2ccccc2)cc1 (stereo not shown) [TRG 2412-24],–,410
CCCCOc1ccc(C2C(CNCCc3ccccc3)c3ccccc3CN2CCCC(CN)NCCc2ccccc2)cc1 (stereo not shown) [TRG 2412-26],–,200
CCCCOc1ccc(C2C(CNCCc3ccccc3)c3ccccc3CN2CCCC(CN)NCc2ccccc2)cc1 (stereo not shown) [TRG 2412-27],–,250
CCCCCc1ccc(C2C(CNCCc3ccccc3)c3ccccc3CN2CCCC(CN)NC)cc1 (stereo not shown) [TRG 2412-28],–,270
CCCCCc1ccc(C2C(CNCCc3ccccc3)c3ccccc3CN2CCCC(CN)NCCc2ccccc2)cc1 (stereo not shown) [TRG 2412-29],–,500
CNCCNC(CN)CCCCN1Cc2ccccc2C(CNCCc2ccccc2)C1c1ccc(-c2ccccc2)cc1 (stereo not shown) [TRG 2413-1],–,440
CNCCNC(CN)CCCCN1Cc2ccccc2C(CN)C1c1ccc(-c2ccccc2)cc1 (stereo not shown) [TRG 2413-2],–,540
CCNc1ccc(C2C(CN)c3ccccc3CN2CCCCC(CN)NCCNC)cc1 (stereo not shown) [TRG 2413-3],–,1560
CCNc1ccc(C2C(CNCCc3ccccc3)c3ccccc3CN2CCCCC(CN)NCCNC)cc1 (stereo not shown) [TRG 2413-4],–,340
CNC(CN)CCCCN1Cc2ccccc2C(CN)C1c1ccc([N+](=O)[O-])cc1 (stereo not shown) [TRG 2413-6],–,6510
NCCNC(CN)CCCN1Cc2ccccc2C(CN)C1c1ccc(-c2ccccc2)cc1 (stereo not shown) [TRG 2413-7],–,1540
CNC(CN)CCCN1Cc2ccccc2C(CN)C1c1ccc(-c2ccccc2)cc1 (stereo not shown) [TRG 2413-8],–,1840
CCNc1ccc(C2C(CNC3CCCCC3)c3ccccc3CN2CCCC(CN)NCCc2ccccc2)cc1 (stereo not shown) [TRG 2413-10],–,310
CCNc1ccc(C2C(CN)c3ccccc3CN2CCCC(CN)NCCc2ccccc2)cc1 (stereo not shown) [TRG 2413-11],–,130
CCNc1ccc(C2C(CNCCc3ccccc3)c3ccccc3CN2CCCC(CN)NC)cc1 (stereo not shown) [TRG 2413-12],–,190
